Results as given in patent publication US20260271931A1, “HERBICIDAL MIXTURES” (Bayer Aktiengesellschaft, priority 2023, published 2026).
Where two headings read alike, the source gives them in different places.

Experiments:
Type in all cases: in vivo
[1] = tested on: Echinochloa crus-galli (ECHCG); experiment: Post-emergence action against weeds, greenhouse pot test, visual rating: Echinochloa crus-galli
[2] = tested on: Sorghum halepense (SORHA); experiment: Post-emergence action against weeds, greenhouse pot test, visual rating: Sorghum halepense
Experimental: (§1) When the observed efficacies already exceed the formal sum total of the values of the tests with individual applications, they also exceed the expected value according to Colby, which is calculated using the formula below and is likewise regarded as an indication of synergism (cf. S. R. Colby; in Weeds 15 (1967) pp. 20 to 22):
(§2) where: • A=efficacy of the active ingredient (A) in % at an application rate of a [g a.i./ha]; • B=efficacy of the active ingredient (B) in % at an application rate of b [g a.i./ha]; • E^C=expected value of the effect of the combination (A)+(B) in % at the combined application rate a+b [g a.i./ha].
(§3) The observed values (E^A) from the experiments, given suitable low dosages, show an effect of the combinations exceeding the expected values according to Colby (E^C) (Δ).
(§4) Seeds of mono- and dicotyledonous weeds were placed in sandy loam in pots, covered with soil and grown in a greenhouse under good growth conditions (temperature, air humidity, water supply). Two to three weeks after sowing, the test plants were treated at the two- to four-leaf stage with the compositions of the invention. The compositions of the invention, formulated as spray powders or as emulsion concentrates, were sprayed onto the green parts of the plant in various dosages with an application rate equivalent to […] of water. After the test plants had been kept in the greenhouse under optimum growth conditions for 3 weeks, the activity of the preparations was rated visually in comparison to untreated controls.
(§5) 100% efficacy means complete control of the particular weed tested.
(§6) 0% efficacy means zero control of the particular weed tested.
(§7) Expected values according to Colby are reported under E.
(§8) The exceedance of the expected value E is given as Δ (=synergistic effect).
(§9) The rating period is reported in days after application (DAT).

Lolium rigidum (LOLRI) = experiment: Post-emergence action against weeds, greenhouse pot test, visual rating: Lolium rigidum
Bidens pilosa (BIDPI) = experiment: Post-emergence action against weeds, greenhouse pot test, visual rating: Bidens pilosa
Centaurea cyanus (CENCY) = experiment: Post-emergence action against weeds, greenhouse pot test, visual rating: Centaurea cyanus
Experimental: as §1, §2, §3, §4, §5, §6, §7, §8, §9

Avena fatua (AVEFA) = experiment: Post-emergence action against weeds, greenhouse pot test, visual rating: Avena fatua
Kochia scoparia (KCHSC) = experiment: Post-emergence action against weeds, greenhouse pot test, visual rating: Kochia scoparia
Eleusine indica (ELEIN) = experiment: Post-emergence action against weeds, greenhouse pot test, visual rating: Eleusine indica; conditions: for pest or weed control at 150 g/ha: 150 g a.i./ha
Experimental: as §1, §2, §3, §4, §5, §6, §7, §8, §9

[3] = tested on: Brachiaria platyfylla (BRAPP); experiment: Post-emergence action against weeds, greenhouse pot test, visual rating: Brachiaria platyfylla
Experimental: as §1, §2, §3, §4, §5, §6, §7, §8, §9

[4] = tested on: Pharbitis purpurea (PHBPU); experiment: Post-emergence action against weeds, greenhouse pot test, visual rating: Pharbitis purpurea
Experimental: as §1, §2, §3, §4, §5, §6, §7, §8, §9

[5] = Eleusine indica, post-emergence, 240 h, 50 g a.i./ha, read-out: Herbicidal effect [%] on ELEIN 10 DAT
[6] = Eleusine indica, post-emergence, 504 h, 50 g a.i./ha, read-out: Herbicidal effect [%] on ELEIN 21 DAT
[7] = post-emergence, 240 h, read-out: Herbicidal effect [%] on BRAPP 10 DAT
[8] = Bassia scoparia, post-emergence, 504 h, read-out: Herbicidal effect [%] on KCHSC 21 DAT
[9] = Eleusine indica, post-emergence, 240 h, read-out: Herbicidal effect [%] on ELEIN 10 DAT
[10] = Eleusine indica, post-emergence, 504 h, read-out: Herbicidal effect [%] on ELEIN 21 DAT

With `Cc1ccc2c(c1)[C@H](Nc1nc(N)nc(C(C)F)n1)[C@@H](C)C2` (stereo partly shown) [Indaziflam, indaziflam] the “Herbicidal effect [%] on ECHCG 10 DAT” value ([1]; 3 g a.i./ha) was 0%, the “Herbicidal effect [%] on SORHA 21 DAT” value ([2]; 3 g a.i./ha) was 10% and the “Herbicidal effect [%] on LOLRI 21 DAT” value (Lolium rigidum (LOLRI); 3 g a.i./ha, 21 DAT) was 0%. The “Herbicidal effect [%] on BIDPI 21 DAT” value (Bidens pilosa (BIDPI); 3 g a.i./ha) was 30%, the “Herbicidal effect [%] on CENCY 10 DAT” value (Centaurea cyanus (CENCY); 3 g a.i./ha) was 20% and the “Herbicidal effect [%] on CENCY 21 DAT” value (Centaurea cyanus (CENCY); 3 g a.i./ha) was 10%. The “Herbicidal effect [%] on AVEFA 10 DAT” value (Avena fatua (AVEFA); 10 DAT, 3 g a.i./ha) was 0%, the “Herbicidal effect [%] on KCHSC 10 DAT” value (Kochia scoparia (KCHSC); 3 g a.i./ha) was 10% and the “Herbicidal effect [%] on KCHSC 21 DAT” value (Kochia scoparia (KCHSC); 3 g a.i./ha) was 20%. For the same compound, the “Herbicidal effect [%] on ELEIN 21 DAT” value (Eleusine indica (ELEIN); 3 g a.i./ha) was 10%.
For `CCNc1nc(Cl)nc(NC(C)(C)C)n1` [Terbuthylazine, terbuthylazine], the “Herbicidal effect [%] on ECHCG 10 DAT” value ([1]; 50 g a.i./ha) was 10%, the “Herbicidal effect [%] on ECHCG 21 DAT” value ([1]; 50 g a.i./ha) was 0% and the pest or weed control at 50 g/ha (Lolium rigidum (LOLRI); Lolium rigidum, 504 h, 50 g a.i./ha, 21 DAT, read-out: Herbicidal effect [%] on LOLRI 21 DAT) was 0%. For the same compound, the pest or weed control at 50 g/ha ([3]; post-emergence, 240 h, 50 g a.i./ha, read-out: Herbicidal effect [%] on BRAPP 10 DAT) was 10%, the pest or weed control at 50 g/ha (Eleusine indica (ELEIN); [5]) was 85% and the pest or weed control at 50 g/ha (Eleusine indica (ELEIN); [6]) was 70%.
With `CCS(=O)(=O)c1cccnc1S(=O)(=O)NC(=O)Nc1nc(OC)cc(OC)n1` [Rimsulfuron, rimsulfuron] the “Herbicidal effect [%] on ECHCG 21 DAT” value ([1]; 0.9 g a.i./ha) was 90%, the “Herbicidal effect [%] on PHBPU 21 DAT” value ([4]; 0.9 g a.i./ha) was 10% and the “Herbicidal effect [%] on AVEFA 21 DAT” value (Avena fatua (AVEFA); 21 DAT, 0.9 g a.i./ha) was 50%. The pest or weed control at 0.9 g/ha (Avena fatua (AVEFA); Avena fatua, 240 h, 10 DAT, 0.9 g a.i./ha, read-out: Herbicidal effect [%] on AVEFA 10 DAT) was 60% and the pest or weed control at 0.9 g/ha (Eleusine indica (ELEIN); Eleusine indica, post-emergence, 504 h, 0.9 g a.i./ha, read-out: Herbicidal effect [%] on ELEIN 21 DAT) was 40%.
`COc1c(Cl)ccc(Cl)c1C(=O)O` [Dicamba, dicamba] was tested, and the “Herbicidal effect [%] on ECHCG 10 DAT” value ([1]; 5 g a.i./ha) was 0%, the pest or weed control at 5 g/ha (Lolium rigidum (LOLRI); Lolium rigidum, 504 h, read-out: Herbicidal effect [%] on LOLRI 21 DAT) was 0% and the “Herbicidal effect [%] on BIDPI 10 DAT” value (Bidens pilosa (BIDPI); 5 g a.i./ha) was 30%. For the same compound, the “Herbicidal effect [%] on BIDPI 21 DAT” value (Bidens pilosa (BIDPI); 5 g a.i./ha) was 40%, the pest or weed control at 5 g/ha [3, 7] was 0% and the pest or weed control at 5 g/ha ([3]; post-emergence, 504 h, read-out: Herbicidal effect [%] on BRAPP 21 DAT) was 0%. The “Herbicidal effect [%] on KCHSC 10 DAT” value (Kochia scoparia (KCHSC); 5 g a.i./ha) was 20%, the pest or weed control at 5 g/ha (Kochia scoparia (KCHSC); [8]) was 20% and the pest or weed control at 5 g/ha (Eleusine indica (ELEIN); [9]) was 0%. The pest or weed control at 5 g/ha (Eleusine indica (ELEIN); [10]) was 0%.
With `CCNc1nc(Cl)nc(NC(C)C)n1` [Atrazine, atrazine] the “Herbicidal effect [%] on PHBPU 10 DAT” value ([4]; 50 g a.i./ha, 10 DAT) was 30%, the “Herbicidal effect [%] on PHBPU 21 DAT” value ([4]; 50 g a.i./ha) was 20% and the pest or weed control at 50 g/ha (Eleusine indica (ELEIN); [5]) was 30%. The pest or weed control at 50 g/ha (Eleusine indica (ELEIN); [6]) was 0%.
With `CCSC(C)CC1CC(=O)C(/C(CC)=N/OC/C=C/Cl)=C(O)C1` (stereo not shown) [Clethodim, clethodim] the “Herbicidal effect [%] on SORHA 10 DAT” value ([2]; 8 g a.i./ha) was 80%, the “Herbicidal effect [%] on LOLRI 10 DAT” value (Lolium rigidum (LOLRI); 8 g a.i./ha) was 80% and the pest or weed control at 8 g/ha [3, 7] was 85%. The pest or weed control at 8 g/ha (Kochia scoparia (KCHSC); [8]) was 0% and the pest or weed control at 8 g/ha (Eleusine indica (ELEIN); [10]) was 30%.
For bicyclopyrone, the “Herbicidal effect [%] on BIDPI 21 DAT” value (Bidens pilosa (BIDPI); 3 g a.i./ha) was 10%, the “Herbicidal effect [%] on CENCY 10 DAT” value (Centaurea cyanus (CENCY); 3 g a.i./ha) was 50% and the “Herbicidal effect [%] on ELEIN 21 DAT” value (Eleusine indica (ELEIN); 3 g a.i./ha) was 30%.
For `CCc1cccc(C)c1N(C(=O)CCl)[C@@H](C)COC` [S-Metolachlor, S-metolachlor], the “Herbicidal effect [%] on ECHCG 21 DAT” value ([1]; 50 g a.i./ha) was 30%, the “Herbicidal effect [%] on SORHA 10 DAT” value ([2]; 50 g a.i./ha) was 10% and the “Herbicidal effect [%] on SORHA 21 DAT” value ([2]; 50 g a.i./ha) was 10%. The “Herbicidal effect [%] on LOLRI 21 DAT” value (Lolium rigidum (LOLRI); 50 g a.i./ha, 21 DAT) was 0%, the “Herbicidal effect [%] on BIDPI 21 DAT” value (Bidens pilosa (BIDPI); 50 g a.i./ha) was 20% and the “Herbicidal effect [%] on PHBPU 21 DAT” value ([4]; 50 g a.i./ha) was 10%. The “Herbicidal effect [%] on CENCY 10 DAT” value (Centaurea cyanus (CENCY); 50 g a.i./ha) was 0%, the “Herbicidal effect [%] on CENCY 21 DAT” value (Centaurea cyanus (CENCY); 50 g a.i./ha) was 10% and the “Herbicidal effect [%] on BRAPP 10 DAT” value ([3]; 50 g a.i./ha) was 30%. The “Herbicidal effect [%] on BRAPP 21 DAT” value ([3]; 50 g a.i./ha) was 30%, the “Herbicidal effect [%] on AVEFA 10 DAT” value (Avena fatua (AVEFA); 10 DAT, 50 g a.i./ha) was 10% and the “Herbicidal effect [%] on KCHSC 21 DAT” value (Kochia scoparia (KCHSC); 50 g a.i./ha) was 10%. The “Herbicidal effect [%] on ELEIN 10 DAT” value (Eleusine indica (ELEIN); 50 g a.i./ha) was 10% and the “Herbicidal effect [%] on ELEIN 21 DAT” value (Eleusine indica (ELEIN); 50 g a.i./ha) was 10%.
In the case of `CS(=O)(=O)c1ccc(C(=O)C2C(=O)CCCC2=O)c([N+](=O)[O-])c1` [Mesotrione, mesotrione], the pest or weed control at 4 g/ha (Lolium rigidum (LOLRI); Lolium rigidum, 504 h, 4 g a.i./ha, 21 DAT, read-out: Herbicidal effect [%] on LOLRI 21 DAT) is reported as 0%, the “Herbicidal effect [%] on CENCY 21 DAT” value (Centaurea cyanus (CENCY); 4 g a.i./ha) is reported as 40% and the pest or weed control at 4 g/ha ([3]; post-emergence, 504 h, 4 g a.i./ha, read-out: Herbicidal effect [%] on BRAPP 21 DAT) is reported as 0%. The pest or weed control at 4 g/ha (Avena fatua (AVEFA); Avena fatua, 240 h, 10 DAT, 4 g a.i./ha, read-out: Herbicidal effect [%] on AVEFA 10 DAT) was 10%, the “Herbicidal effect [%] on KCHSC 10 DAT” value (Kochia scoparia (KCHSC); 4 g a.i./ha) was 30% and the pest or weed control at 4 g/ha (Eleusine indica (ELEIN); Eleusine indica, post-emergence, 504 h, 4 g a.i./ha, read-out: Herbicidal effect [%] on ELEIN 21 DAT) was 10%.
`CCOCN(C(=O)CCl)c1c(C)cccc1CC` [Acetochlor, acetochlor] was tested, and the “Herbicidal effect [%] on LOLRI 10 DAT” value (Lolium rigidum (LOLRI); 150 g a.i./ha) was 40%, the pest or weed control at 150 g/ha (Lolium rigidum (LOLRI); Lolium rigidum, 504 h, 150 g a.i./ha, 21 DAT, read-out: Herbicidal effect [%] on LOLRI 21 DAT) was 0% and the pest or weed control at 150 g/ha (Eleusine indica (ELEIN); [9]) was 80%. The pest or weed control at 150 g/ha (Eleusine indica (ELEIN); [10]) was 90%.
